Where two headings read alike, the source gives them in different places.
Experiments:
Type in all cases: cell-based, Yersinia pseudotuberculosis
[1] = test system: Yop secretion from the wild-type strain pIB102EL; conditions: for Inhibition of Yop secretion into the surrounding medium (in words): supernatant after 3 h at 37° C., Western analysis
[2] = test system: luciferase light signal from pIB29EL (yopE-luxAB); assay: microbe, parasite or virus in culture; conditions: for IC50: read-out: IC50 (concentration resulting in 50% reduction of luciferase light emission)
[3] = test system: reporter gene signal from pIB102FΔhlhL (lcrFΔhlh-luxAB)
[4] = test system: luciferase light signal from pIB102AL (luxAB downstream of the promoter for YerA)
[5] = test system: reporter gene signal from pIB102FL (lcrF-luxAB)
[6] = test system: luciferase light signal from pIB102EL (yopE-luxAB, wild-type); assay: microbe, parasite or virus in culture; conditions: for inhibition at 5 µM / inhibition at 10 µM / inhibition at 20 µM / inhibition at 50 µM / inhibition at 100 µM: Yersinia pseudotuberculosis, read-out: Inhibition (%) of the luciferase light signal; for Inhibition (%) of the luciferase light signal: strain pIB102EL, Table 2C
[7] = 10 μM, strain pIB29EL, Table 2C
[8] = 20 μM, strain pIB29EL, Table 2C
[9] = 50 μM, strain pIB29EL, Table 2C
[10] = 100 μM, strain pIB29EL, Table 2C

Row | Compound | Inhibition (%) of the luciferase light signal ([6]; 5 μM) | Inhibition (%) of the luciferase light signal ([6]; 10 μM) | Inhibition (%) of the luciferase light signal ([6]; 20 μM) | Inhibition (%) of the luciferase light signal ([6]; 50 μM) | Inhibition (%) of the luciferase light signal ([6]; 100 μM) | Inhibition (%) of the luciferase light signal ([2]; 5 μM, strain pIB29EL, Table 2C) | Inhibition (%) of the luciferase light signal [2, 7] | Inhibition (%) of the luciferase light signal [2, 8] | Inhibition (%) of the luciferase light signal [2, 9] | Inhibition (%) of the luciferase light signal [2, 10] | also measured
1 | O=C(N/N=C/c1cc(Br)cc(Br)c1O)c1ccc([N+](=O)[O-])cc1 [Compound 3] |  |  |  |  |  |  |  |  |  |  | Inhibition of Yop secretion into the surrounding medium (in words) [1]: efficiently inhibits Yop secretion in a dose dependent manner; Total Yop content, bacteria and surrounding media (in words) ([1]; various concentrations incl. 50 and 100 μM lanes, FIG. 6B): Yops can be observed at concentrations that completely inhibit secretion; Inhibition (%) of the luciferase light signal ([2]; 10 μM, pIB29EL, Table 2A): 12%; Inhibition (%) of the luciferase light signal ([2]; 20 μM, pIB29EL, Table 2A): 48%; Inhibition (%) of the luciferase light signal ([2]; 50 μM, pIB29EL, Table 2A): 85%; Inhibition (%) of the luciferase light signal ([2]; 100 μM, pIB29EL, Table 2A): 86%; Potency within the class of acylated hydrazones of salicylic aldehydes from primary screening (in words) ([2]; pIB29EL): most potent; Effect on reporter gene signal (in words) [3]: more than doubled; Selectivity between pIB102EL (YopE promoter) and control strain pIB102AL (in words) [4]: stronger inhibitory effect on the wild-type strain pIB102EL; Effect on reporter gene signal (in words) [5]: enhance the reporter gene signal
2 | O=C(Nc1ccc(Cl)c(Cl)c1)c1cc(Cl)ccc1NS(=O)(=O)c1cccc2nsnc12 [Compound 5] |  |  |  |  |  |  |  |  |  |  | Inhibition of Yop secretion into the surrounding medium (in words) [1]: dose dependent inhibition of secretion; Inhibition (%) of the luciferase light signal ([2]; 10 μM, pIB29EL, Table 2A): 35%; Inhibition (%) of the luciferase light signal ([2]; 20 μM, pIB29EL, Table 2A): 60%; Inhibition (%) of the luciferase light signal ([2]; 50 μM, pIB29EL, Table 2A): 69%; Inhibition (%) of the luciferase light signal ([2]; 100 μM, pIB29EL, Table 2A): 66%; Effect on reporter gene signal (in words) [3]: modest enhancement; Selectivity between pIB102EL (YopE promoter) and control strain pIB102AL (in words) [4]: stronger inhibitory effect on the wild-type strain pIB102EL; Effect on reporter gene signal (in words) [5]: minor inhibition
3 | NC(=O)C(=O)N/N=C/c1cc(Br)ccc1O [Compound 22] |  |  |  |  |  |  |  |  |  |  | inhibition at 5 µM [6]: 0%; inhibition at 10 µM [6]: 4%; inhibition at 20 µM [6]: 24%; inhibition at 50 µM [6]: 66%; inhibition at 100 µM [6]: 82%
4 | O=C(N/N=C/c1ccc(O)c(O)c1O)c1ccco1 [Compound 34] |  |  |  |  |  |  |  |  |  |  | inhibition at 5 µM [6]: 1%; inhibition at 10 µM [6]: 5%; inhibition at 20 µM [6]: 10%; inhibition at 50 µM [6]: 26%; inhibition at 100 µM [6]: 56%
5 | O=C(N/N=C/c1cc(Cl)cc(Cl)c1O)c1ccccc1 [Compound 35] | 0% | 0% | 5% | 21% | 43% |  |  |  |  |  | 
6 | O=C(N/N=C/c1ccc(O)c(O)c1O)c1ccccc1 [Compound 36] | 5% | 10% | 15% | 24% | 54% |  |  |  |  |  | 
7 | CCN(CC)c1ccc(/C=N/NC(=O)c2cccnc2)c(O)c1 [Compound 37] |  |  |  |  |  |  |  |  |  |  | inhibition at 5 µM [6]: 5%; inhibition at 10 µM [6]: 8%; inhibition at 20 µM [6]: 21%; inhibition at 50 µM [6]: 30%; inhibition at 100 µM [6]: 32%
8 | O=C(N/N=C/c1ccc(O)cc1O)c1ccc([N+](=O)[O-])cc1 [Compound 38] | 4% | 10% | 13% | 23% | 36% |  |  |  |  |  | 
9 | CC(=NNC(=O)c1cccnc1)c1cc(Br)cc(Br)c1O [Compound 39] | 0% | 3% | 4% | 13% | 24% |  |  |  |  |  | 
10 | Nc1ccc(C(=O)N/N=C/c2cc(I)cc(I)c2O)cc1 [Compound 40] | 3% | 11% | 18% | 41% | 50% |  |  |  |  |  | 
11 | O=C(N/N=C/c1cc(I)cc(I)c1O)c1ccc([N+](=O)[O-])cc1 [Compound 41] | 3% | 13% | 33% | 48% | 44% |  |  |  |  |  | 
12 | O=C(N/N=C/c1cc(Br)ccc1O)c1cccnc1 [Compound 42] | 0% | 9% | 16% | 49% | 59% |  |  |  |  |  | 
13 | CCOc1cccc(/C=N/NC(=O)c2ccc(Cl)cc2)c1O [Compound 43] | 0% | 6% | 12% | 22% | 34% |  |  |  |  |  | 
14 | Nc1ccc(C(=O)N/N=C/c2c(O)ccc3ccccc23)cc1 [Compound 44] | 3% | 10% | 15% | 23% | 30% |  |  |  |  |  | 
15 | O=C(Nc1ccc(SC(F)(F)F)cc1)c1cc2cc(Br)ccc2c(Br)c1O [Compound 53] |  |  |  |  |  | 11% | 38% | 43% | 58% | 68% | 
16 | O=C(Nc1ccc(SC(F)(F)F)cc1)c1cccc(Cl)c1O [Compound 54] |  |  |  |  |  | 41% | 63% | 86% | 89% | 87% | 
17 | O=C(Nc1ccc([N+](=O)[O-])cc1Cl)c1cc(Cl)ccc1O [Compound 55] |  |  |  |  |  | 85% | 96% | 96% | 94% | 94% | 
18 | CC(=O)Oc1ccc(Cl)cc1C(=O)Nc1ccc([N+](=O)[O-])cc1Cl [Compound 56] |  |  |  |  |  | 77% | 90% | 91% | 91% | 90% | 
19 | O=C(Nc1cccc(Cl)c1)c1cc(Cl)ccc1NS(=O)(=O)c1cccc2nsnc12 [Compound 57] |  |  |  |  |  | 0% | 7% | 26% | 49% | 55% | 
20 | O=C(Nc1ccc(Cl)cc1)c1ccccc1NS(=O)(=O)c1cccc2nsnc12 [Compound 58] |  |  |  |  |  | 4% | 5% | 10% | 11% | 15% | 
21 | O=C(Nc1ccc(Cl)c(Cl)c1)c1ccccc1NS(=O)(=O)c1cccc2nsnc12 [Compound 59] |  |  |  |  |  | 0% | 0% | 0% | 7% | 10% | 
22 | CC(=O)Oc1ccccc1C(=O)Nc1ccc(Cl)cc1 [Compound 60] |  |  |  |  |  | 0% | 21% | 65% | 89% | 89% | 
23 | NC(=O)C(=O)N/N=C/c1cc(Br)cc(Br)c1O [Compound 61] |  |  |  |  |  | 7% | 9% | 19% | 32% | 55% | 
24 | CC(=O)Oc1ccc(I)cc1C(=O)Nc1ccc(Cl)cc1 [Compound 62] |  |  |  |  |  | 95% | 92% | 91% | 91% | 90% | 
25 | CCn1cc(C(=O)O)c(=O)c2ccc(C)nc21 [Nalidixic acid, reference compound] |  |  |  |  |  |  |  |  |  |  | IC50 ([2]; Yersinia pseudotuberculosis): 15 µM; Inhibition of light-emission (in words) ([2]; known antibiotics, pIB29EL): dose-dependent inhibition of light-emission
26 | [H]/N=C(/N)N[C@H]1[C@H](O)[C@@H](O)[C@H](O[C@@H]2O[C@@H](C)[C@](O)(C=O)[C@H]2O[C@@H]2O[C@@H](CO)[C@H](O)[C@@H](O)[C@@H]2NC)[C@@H](N/C(N)=N\[H])[C@@H]1O [Streptomycin, reference compound] |  |  |  |  |  |  |  |  |  |  | IC50 ([2]; Yersinia pseudotuberculosis): 4 µM; Inhibition of light-emission (in words) ([2]; known antibiotics, pIB29EL): dose-dependent inhibition of light-emission
27 | Polymixin B [reference compound] |  |  |  |  |  |  |  |  |  |  | Inhibition of light-emission (in words) [2]: dose-dependent inhibition of light-emission; IC50 [2]: 0.15 µM

Source: patent US7351861B2 (priority 2002, dated 2008)
